How the values were obtained:
[1] = system: sulfonylurea (SUR) receptors of KATP channels; details: rat cerebral cortex, hippocampus, and striatum; cited from earlier work
β-cell KATP channels [2] = target: T1, β-cell KATP channels (Rattus norvegicus, UniProt P70673+Q09429); experiment: Preliminary experiments on β-cell KATP channels (data not shown); assay type: cell-based; design: endogenous in cells; host or cells: β-cells (preparation not described for these experiments)
rat pancreatic islets = experiment: Measurement of insulin release from isolated islets (RIA); assay type: cell-based; details: versus basal at 5.5 mM glucose
Description: Measurement of insulin release. Isolated islets were hand-picked under microscopy, and ten islets were distributed to each 35-mm Petri dish with 3 ml of HBSS containing 5.5 mM glucose, 20 mM HEPES, and 2% BSA. After pre-incubation for 60 min, islets were exposed to 100 nM BIM for 60 min, and then stimulated by high glucose (22.5 mM), tolbutamide (0.5 mM) or iptakalim (0.1 mM) for 30 min. Before and after glucose stimulation, some samples were collected for measurement of immuno-reactive insulin (IRI), and stored at −20° C. until the assay. IRI was measured by RIA using anti-human insulin antibody with rat insulin standard (Radio-immunoassay Kit, Insulin “Eiken”, Tokyo Japan).
Iptakalim increased insulin release from rat pancreatic islets. Turning finally to FIG. 19, the effects of iptakalim were examined on insulin release. […] With glucose at 5.5 mM in the external solution, basal insulin secretion was observed. Application of 22.5 mM glucose increased insulin secretion about 3-fold (p<0.01, n=6), 500 μM tolbutamide increased insulin secretion about 2.5-fold (p<0.01, n=6), and 100 μM iptakalim increased insulin secretion about 1.5-fold (p<0.05, n=8). Each group was averaged from 5-7 cells tested. Vertical bars indicate SE.

β-cell KATP channels [3] = target: T1, β-cell KATP channels; experiment: Conventional whole-cell voltage-clamp, ramp pulse-induced KATP channel currents; assay type: cell-based; design: the effects of iptakalim on KATP channels expressed in rat pancreatic β-cells were examined; endogenous in cells; host or cells: primary pancreatic β-cells from male adult Wistar rats; details: for effect on ramp pulse-induced KATP channel whole-cell current: ramp −90 to −50 mV, glucose 5.5 mM
Description: (§1) Pancreatic β-cell isolation. Isolation of rat islets was performed as previously described. In short, male adult rats (Wistar) were anesthetized with diethyl ether, and 10 ml of Hank's buffered saline (HBSS) containing collagenase (200 U/ml, Wako Chem., Japan) was injected into the common bile duct. The pancreas, swollen with digestion solution, was quickly excised and incubated in a plastic culture bottle for 20 min at 37° C. The suspension obtained by shaking the bottle was filtered through 0.5 mm metal mesh and washed with HBSS, which included 2% bovine serum albumin (BSA). […] After washing with HBSS, which contained 2% BSA, islets were cultured for 24 h with 5% CO2 in the tissue culture medium. Separation of islets was carried out using dispase (1000 U/ml, Godo Shusei, Japan) as previously described. Separated cells were again cultured for 1-4 days. […] Patch-clamp recordings. Cultured β-cells were kept in a 35-mm Petri dish, and the dish was placed on the stage of an inverted microscope (IMT-2, Olympus, Tokyo, Japan). Membrane potentials and membrane currents were measured using a patch-clamp amplifier (EPC-7, List Electronic, Darmstadt, Germany). The nystatin-perforation method was used to measure the membrane potential and the standard method was used to measure whole-cell currents. […] In order to measure whole-cell membrane current, voltage ramp pulses from −90 to −50 mV were repeatedly applied using a ramp pulse generator (SET-2100, Nihon Kohden, Tokyo, Japan). […] Series resistance below 12 MΩ was accepted. Single channel current recordings were carried out by the cell-attached and inside-out configurations. All electrophysiological experiments were carried out at room temperature (22±1° C.). Data of single channel currents were low-pass filtered at 1 KHz, digitized at 10 KHz and analyzed using a single channel current analysis program (Clampfit 9.2, Axon Instruments, Foster City, Calif.). The concentration-inhibition curve created by iptakalim was fitted using Origin 5.0 (Microcal, North Hampton, Mass.).
Solutions and Drugs. The standard external solution contained (in mM): 135 NaCl, 5.6 KCl, 1.2 MgCl2, 1 CaCl2, 5 glucose, 10 HEPES and pH 7.3 adjusted with KOH. For perforated patch membrane potential recording, the pipette solution contained (in mM): 100 K-gluconate, 35 KCl, 5 glucose, 0.5 EGTA, 10 HEPES, 200 μg/ml nystatin (Sigma, St. Louis, Mo., USA) and pH 7.2. For conventional whole-cell current recording, the pipette solution contained (in mM): 100 K-gluconate, 35 KCl, 1.2 MgCl2, 5 glucose, 0.5 EGTA, 10 HEPES and pH 7.2. For cell-attached and inside-out single channel recordings, the pipette solution contained (in mM): 135 KCl, 1.2 MgCl2, 5 glucose, 0.5 EGTA, 10 HEPES and pH 7.3. […]

β-cell KATP channels [4] = target: T1, β-cell KATP channels; experiment: Cell-attached single channel recording of KATP channels; assay type: cell-based; design: the effects of iptakalim on KATP channels expressed in rat pancreatic β-cells were examined; endogenous in cells; host or cells: primary pancreatic β-cells from male adult Wistar rats
Description: as §1
Solutions and Drugs. The standard external solution contained (in mM): 135 NaCl, 5.6 KCl, 1.2 MgCl2, 1 CaCl2, 5 glucose, 10 HEPES and pH 7.3 adjusted with KOH. For perforated patch membrane potential recording, the pipette solution contained (in mM): 100 K-gluconate, 35 KCl, 5 glucose, 0.5 EGTA, 10 HEPES, 200 μg/ml nystatin (Sigma, St. Louis, Mo., USA) and pH 7.2. For conventional whole-cell current recording, the pipette solution contained (in mM): 100 K-gluconate, 35 KCl, 1.2 MgCl2, 5 glucose, 0.5 EGTA, 10 HEPES and pH 7.2. For cell-attached and inside-out single channel recordings, the pipette solution contained (in mM): 135 KCl, 1.2 MgCl2, 5 glucose, 0.5 EGTA, 10 HEPES and pH 7.3. The ionic composition of the solution inside the membrane (bath solution) in inside-out recordings was the same as the pipette solution, but the pH of this solution was 7.2. When performing inside-out recordings, ATP was added to the bath solution at various concentrations.

rat pancreatic β-cells = experiment: Nystatin-perforation whole-cell recording in current-clamp mode (membrane potential); assay type: cell-based; details: 100 μM; for effect on membrane potential: in the presence of 10 μM nifedipine
Description: as §1
Solutions and Drugs. […]

rat β-cells = experiment: Fura-2 Ca2+ imaging of intracellular Ca2+ concentrations; assay type: cell-based; details: 100 μM bath-applied; sensitive to nifedipine
Description: Fura-2 Ca^2+ imaging. Isolated islets were placed in a glass-bottom culture dish and then loaded with a HEPES buffer solution (in mM: NaCl 140, KCl 4.7, MgCl2 1.2, CaCl2 1.0, glucose 10 and HEPES 10) containing 1 μM fura-2/AM (Dojin, Kumamoto, Japan) for 20 min at room temperature. Ca^+ images were captured using an inverted microscope with 40× Plan-Neofluar objectives (Axiovert 135, Zeiss, Oberkochen, Germany), a silicon intensifier target camera and recorded on a fluorescence-imaging system (Argus 50/CA, Hamamatsu Photonics, Hamamatsu, Japan). Excitation wavelengths were 340 nm and 380 nm, selected from a Xenon light source, and emission wavelength was 510 nm. A change in free intracellular Ca^2+ concentration ([Ca^2+]i) was calculated based on the change in ratio of two fluorescence intensities, F340/F380 (24). All microfluorimetric experiments were carried out at room temperature (22±1° C.).
Iptakalim elevated intracellular Ca^2+ concentrations. Referring to FIGS. 15-18, in order to test whether iptakalim-induced membrane depolarization triggers Ca^2+ influx through voltage-sensitive Ca^2+ channels, intracellular Ca^2+ concentrations were measured using fura-2 florescence imaging.

Kir6.2/SUR1 = target: T2, Kir6.2/SUR1 (Homo sapiens, UniProt Q09428+Q14654); experiment: Transfected Kir6.2/SUR1 cell line (HEK 293), data not shown; assay type: cell-based
T2 construct: expressed in transfected cells; host or cells: HEK 293
T2 sequence (Q14654 whole entry): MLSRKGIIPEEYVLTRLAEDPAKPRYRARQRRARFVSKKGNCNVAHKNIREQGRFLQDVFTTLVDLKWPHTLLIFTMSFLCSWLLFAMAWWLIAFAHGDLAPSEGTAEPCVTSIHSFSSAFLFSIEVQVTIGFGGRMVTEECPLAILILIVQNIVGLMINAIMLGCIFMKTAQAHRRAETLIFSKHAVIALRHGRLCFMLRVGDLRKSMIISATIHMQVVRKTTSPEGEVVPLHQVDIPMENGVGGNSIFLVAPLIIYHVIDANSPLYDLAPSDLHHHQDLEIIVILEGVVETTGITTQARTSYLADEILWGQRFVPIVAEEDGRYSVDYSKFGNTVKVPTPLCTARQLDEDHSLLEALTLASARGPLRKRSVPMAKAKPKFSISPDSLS
T2 sequence (Q09428 whole entry): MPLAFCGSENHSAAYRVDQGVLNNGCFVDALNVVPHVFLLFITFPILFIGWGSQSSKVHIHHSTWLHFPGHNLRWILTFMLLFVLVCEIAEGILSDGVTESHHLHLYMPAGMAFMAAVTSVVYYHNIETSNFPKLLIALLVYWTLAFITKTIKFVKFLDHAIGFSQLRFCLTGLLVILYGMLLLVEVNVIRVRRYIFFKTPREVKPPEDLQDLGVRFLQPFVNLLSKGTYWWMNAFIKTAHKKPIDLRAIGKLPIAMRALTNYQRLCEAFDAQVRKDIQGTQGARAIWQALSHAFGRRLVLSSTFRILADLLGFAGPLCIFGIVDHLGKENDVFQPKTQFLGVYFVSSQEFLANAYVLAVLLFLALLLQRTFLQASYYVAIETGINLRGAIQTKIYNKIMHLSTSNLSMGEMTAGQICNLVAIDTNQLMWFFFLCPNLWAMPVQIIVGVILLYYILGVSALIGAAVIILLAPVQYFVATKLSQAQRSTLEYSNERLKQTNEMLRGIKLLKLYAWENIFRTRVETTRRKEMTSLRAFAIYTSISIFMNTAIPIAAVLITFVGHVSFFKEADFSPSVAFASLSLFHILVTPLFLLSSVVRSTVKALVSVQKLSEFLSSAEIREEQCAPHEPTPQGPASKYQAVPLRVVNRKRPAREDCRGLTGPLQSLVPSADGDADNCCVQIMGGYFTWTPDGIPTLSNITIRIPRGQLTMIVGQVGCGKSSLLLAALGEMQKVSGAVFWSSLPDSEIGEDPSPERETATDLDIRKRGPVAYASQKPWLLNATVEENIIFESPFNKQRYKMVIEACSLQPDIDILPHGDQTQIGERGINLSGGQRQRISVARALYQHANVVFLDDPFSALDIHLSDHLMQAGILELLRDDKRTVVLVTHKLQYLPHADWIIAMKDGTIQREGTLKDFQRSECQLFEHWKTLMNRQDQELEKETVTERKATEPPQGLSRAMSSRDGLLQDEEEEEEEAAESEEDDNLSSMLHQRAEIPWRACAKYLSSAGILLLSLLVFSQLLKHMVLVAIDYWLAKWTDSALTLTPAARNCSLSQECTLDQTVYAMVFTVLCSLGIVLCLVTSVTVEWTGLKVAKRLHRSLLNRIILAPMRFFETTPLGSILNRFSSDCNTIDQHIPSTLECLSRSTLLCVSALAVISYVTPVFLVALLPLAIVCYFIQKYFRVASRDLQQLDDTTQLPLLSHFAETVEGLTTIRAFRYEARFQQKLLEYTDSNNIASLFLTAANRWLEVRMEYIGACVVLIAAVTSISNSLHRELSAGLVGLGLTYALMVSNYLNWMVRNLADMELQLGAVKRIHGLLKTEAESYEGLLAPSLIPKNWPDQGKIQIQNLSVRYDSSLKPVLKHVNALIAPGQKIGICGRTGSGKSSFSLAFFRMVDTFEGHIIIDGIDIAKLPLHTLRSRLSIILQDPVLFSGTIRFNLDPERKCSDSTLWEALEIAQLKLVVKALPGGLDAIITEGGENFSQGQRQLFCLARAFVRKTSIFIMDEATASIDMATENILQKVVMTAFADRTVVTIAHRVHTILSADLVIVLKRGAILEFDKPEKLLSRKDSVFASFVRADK
Text: It is well known that KATP channels are expressed in a variety of tissues with different SUR subunits. For instance, cardiovascular KATP channels are formed by Kir6.2-SUR2A, pancreatic β-cell KATP channels are formed by Kir6.2-SUR1, while midbrain dopamine neurons are formed by Kir6.2-SUR1 (15,25-27) or Kir6.2-SUR2B. This diversity in SUR subunit expression results in different sensibilities to metabolic stress agents and KATP channel openers.

[5] = system: smooth muscle cells isolated from pulmonary artery; details: patch-clamp whole-cell; also isolated rat aorta denuded vascular endothelium; cited from earlier work
KATP channel = details: cited from earlier work
[6] = system: primary cultured hippocampal neurons; details: K+, but not Na+ and Ca2+; cited from earlier work
[7] = cited from earlier work
β-cell KATP channels [8] = target: T1, β-cell KATP channels; experiment: Inside-out patch single channel recording of KATP channels; assay type: biochemical; design: the effects of iptakalim on KATP channels expressed in rat pancreatic β-cells were examined; endogenous in cells; host or cells: primary pancreatic β-cells from male adult Wistar rats; details: 100 μM
Description: Pancreatic β-cell isolation. Isolation of rat islets was performed as previously described. In short, male adult rats (Wistar) were anesthetized with diethyl ether, and 10 ml of Hank's buffered saline (HBSS) containing collagenase (200 U/ml, Wako Chem., Japan) was injected into the common bile duct. The pancreas, swollen with digestion solution, was quickly excised and incubated in a plastic culture bottle for 20 min at 37° C. The suspension obtained by shaking the bottle was filtered through 0.5 mm metal mesh and washed with HBSS, which included 2% bovine serum albumin (BSA). […] After washing with HBSS, which contained 2% BSA, islets were cultured for 24 h with 5% CO2 in the tissue culture medium. Separation of islets was carried out using dispase (1000 U/ml, Godo Shusei, Japan) as previously described. Separated cells were again cultured for 1-4 days. […] Patch-clamp recordings. Cultured β-cells were kept in a 35-mm Petri dish, and the dish was placed on the stage of an inverted microscope (IMT-2, Olympus, Tokyo, Japan). Membrane potentials and membrane currents were measured using a patch-clamp amplifier (EPC-7, List Electronic, Darmstadt, Germany). […] Data of single channel currents were low-pass filtered at 1 KHz, digitized at 10 KHz and analyzed using a single channel current analysis program (Clampfit 9.2, Axon Instruments, Foster City, Calif.). […]

[9] = 100 μM bath-application, Vp 0 mV

T1 sequence (P70673 whole entry): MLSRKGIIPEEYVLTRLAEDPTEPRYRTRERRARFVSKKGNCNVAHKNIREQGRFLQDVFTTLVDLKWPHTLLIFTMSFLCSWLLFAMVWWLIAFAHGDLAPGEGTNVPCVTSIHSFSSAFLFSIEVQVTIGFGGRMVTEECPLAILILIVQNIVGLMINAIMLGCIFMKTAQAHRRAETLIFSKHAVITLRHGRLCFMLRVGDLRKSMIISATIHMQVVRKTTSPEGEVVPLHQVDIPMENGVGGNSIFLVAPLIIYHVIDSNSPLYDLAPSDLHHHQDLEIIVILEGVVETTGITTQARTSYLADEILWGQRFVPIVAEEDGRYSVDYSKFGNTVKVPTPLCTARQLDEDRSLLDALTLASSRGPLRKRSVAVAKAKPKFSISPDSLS
T1 sequence (Q09429 whole entry): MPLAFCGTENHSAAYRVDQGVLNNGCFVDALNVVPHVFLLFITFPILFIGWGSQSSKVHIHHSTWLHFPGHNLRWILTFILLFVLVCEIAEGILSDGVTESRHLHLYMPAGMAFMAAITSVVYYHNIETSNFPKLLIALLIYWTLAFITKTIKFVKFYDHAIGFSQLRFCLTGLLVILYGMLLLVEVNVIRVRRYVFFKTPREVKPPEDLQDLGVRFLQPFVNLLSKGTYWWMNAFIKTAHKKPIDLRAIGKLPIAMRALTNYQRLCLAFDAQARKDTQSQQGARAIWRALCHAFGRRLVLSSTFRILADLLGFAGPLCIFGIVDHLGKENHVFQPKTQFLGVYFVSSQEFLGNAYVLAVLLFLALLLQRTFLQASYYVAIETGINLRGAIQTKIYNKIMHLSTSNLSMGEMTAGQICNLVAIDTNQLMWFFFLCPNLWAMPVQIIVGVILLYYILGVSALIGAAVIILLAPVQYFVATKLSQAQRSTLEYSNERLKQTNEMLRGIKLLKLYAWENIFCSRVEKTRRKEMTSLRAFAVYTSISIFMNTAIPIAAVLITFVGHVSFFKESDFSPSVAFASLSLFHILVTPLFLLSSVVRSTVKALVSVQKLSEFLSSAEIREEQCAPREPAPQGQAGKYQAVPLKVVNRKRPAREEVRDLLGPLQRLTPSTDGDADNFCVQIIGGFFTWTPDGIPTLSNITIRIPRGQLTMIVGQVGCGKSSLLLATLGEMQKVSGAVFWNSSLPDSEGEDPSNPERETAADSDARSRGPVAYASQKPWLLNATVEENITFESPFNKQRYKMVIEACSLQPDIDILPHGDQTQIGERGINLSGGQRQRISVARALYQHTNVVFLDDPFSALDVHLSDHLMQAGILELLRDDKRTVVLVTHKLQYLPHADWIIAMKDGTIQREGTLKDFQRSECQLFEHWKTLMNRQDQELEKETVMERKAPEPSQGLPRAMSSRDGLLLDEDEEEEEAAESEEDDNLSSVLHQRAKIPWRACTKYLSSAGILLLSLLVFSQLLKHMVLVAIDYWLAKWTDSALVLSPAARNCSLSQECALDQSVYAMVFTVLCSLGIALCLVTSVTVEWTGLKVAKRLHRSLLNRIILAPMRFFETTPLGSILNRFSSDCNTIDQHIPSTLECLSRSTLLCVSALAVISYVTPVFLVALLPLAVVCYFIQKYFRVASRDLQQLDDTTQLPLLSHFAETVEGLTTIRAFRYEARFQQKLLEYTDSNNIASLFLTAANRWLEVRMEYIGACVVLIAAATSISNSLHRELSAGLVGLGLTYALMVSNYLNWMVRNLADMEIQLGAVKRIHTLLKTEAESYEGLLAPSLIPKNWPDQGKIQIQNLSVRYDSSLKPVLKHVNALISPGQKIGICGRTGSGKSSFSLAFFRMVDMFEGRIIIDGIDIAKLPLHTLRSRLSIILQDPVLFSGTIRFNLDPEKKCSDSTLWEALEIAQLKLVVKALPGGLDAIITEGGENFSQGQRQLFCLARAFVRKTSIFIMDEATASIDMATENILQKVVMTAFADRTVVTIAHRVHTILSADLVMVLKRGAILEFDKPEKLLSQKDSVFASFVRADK

CC(N/C(=N\C#N)Nc1ccncc1)C(C)(C)C (stereo not shown) [pinacidil]
displacement of [3H]iptakalim binding [1]: displaced
effect on β-cell KATP channels (β-cell KATP channels [2]): showed inhibition of β-cell KATP channels

CCCCNC(=O)NS(=O)(=O)c1ccc(C)cc1 [tolbutamide, reference compound]
increase of insulin secretion (rat pancreatic islets; 500 μM): about 2.5 fold
effect on ramp pulse-induced KATP channel whole-cell current (β-cell KATP channels [3]; 500 μM): reversibly abolished the size of the current
effect on KATP channel activity (β-cell KATP channels [4]; 500 μM bath-application, Vp 0 mV): completely abolished KATP channel activity
sensitivity of spontaneous single channel activities (β-cell KATP channels [4]; 500 μM bath-applied, Vp −60 mV): very sensitive

CC1=NS(=O)(=O)c2cc(Cl)ccc2N1 [diazoxide, reference compound]
effect on membrane potential (rat pancreatic β-cells): remarkably hyperpolarized the membrane
effect on KATP channel activity (β-cell KATP channels [4]; [9]): dramatically enhanced KATP channel activity

CC(C)NC(C)(C)C(C)C.Cl [iptakalim, N-(1-methylethyl)-1,1,2-trimethyl-propylamine hydrochloride]
effect on membrane potential and action potential firing (rat pancreatic β-cells; 5.5 mM glucose in external solution): slowly depolarized the membrane and elicited action potential firing
effect on membrane potential (rat pancreatic β-cells): clearly depolarized the membrane
effect on intracellular Ca2+ concentrations (rat β-cells): induced elevation of intracellular Ca^2+ concentrations
increase of insulin secretion (rat pancreatic islets; 100 μM): about 1.5 fold
sensitivity of Kir6.2/SUR1 channels (opening) (Kir6.2/SUR1): insensitivity
effect on K+ currents [5]: significantly enhanced K^+ currents
displacement of specific binding of [3H]P1075 (KATP channel): displaced by iptakalim in a concentration-dependent manner
effect on voltage-activated currents [6]: selectively enhanced voltage-activated K^+
water solubility [7]: water-soluble
effect on ramp pulse-induced KATP channel whole-cell current (β-cell KATP channels [3]; 100 μM bath-application): reduced the magnitude of the KATP channel current
Hill coefficient of block of KATP channel current (β-cell KATP channels [3]; whole-cell, concentration-inhibition curve): 0.7
IC50 (β-cell KATP channels [3]; whole-cell, concentration-inhibition curve, read-out: IC50 of block of KATP channel current): 3.3 µM
effect on KATP channel activity (β-cell KATP channels [4]; [9]): reduced channel activities
effect on KATP channel activity (β-cell KATP channels [4]; 100 μM, Vp −60 mV): reduced KATP channel activity
open-time probability of KATP channels (β-cell KATP channels [4]; during application of 100 μM, before application 0.43±0.0438, Vp 0 mV): 0.121±0.026
current amplitude of KATP channels (β-cell KATP channels [4]; during application of 100 μM, before application 3.51±0.17 pA, Vp 0 mV): 3.16±0.14 pA
mean open time of KATP channels (β-cell KATP channels [4]; during application of 100 μM, before application 5.95±0.62 ms, Vp 0 mV): 8.78 ± 0.81 ms
mean open-time probability (β-cell KATP channels [8]; absence of ATP, reduced from 0.359±0.065): 0.145±0.041
mean open-time probability (β-cell KATP channels [8]; presence of 10 μM ATP, reduced from 0.222±0.042): 0.103±0.029

CCC(C)(C)N=C(NC#N)Nc1cccnc1 [P1075]
displacement of [3H]iptakalim binding [1]: displaced

Source: patent US20070231273A1, “Method for Decreasing Blood Glucose Levels” (priority 2006, published 2007)
